These results are taken from patent publication US20230141887A1, “CRYSTAL FORM OF DIAZASPIROPYRAN COMPOUND” (MEDSHINE DISCOVERY INC., priority 2020, published 2023).

A word on the IC50: it is the concentration that gives 50% inhibition. A low value points to greater potency in that assay.

This assay has as its target T1, AXL (Homo sapiens, UniProt P30530).
T1 construct: purchased Promega
T1 sequence (P30530 26-894): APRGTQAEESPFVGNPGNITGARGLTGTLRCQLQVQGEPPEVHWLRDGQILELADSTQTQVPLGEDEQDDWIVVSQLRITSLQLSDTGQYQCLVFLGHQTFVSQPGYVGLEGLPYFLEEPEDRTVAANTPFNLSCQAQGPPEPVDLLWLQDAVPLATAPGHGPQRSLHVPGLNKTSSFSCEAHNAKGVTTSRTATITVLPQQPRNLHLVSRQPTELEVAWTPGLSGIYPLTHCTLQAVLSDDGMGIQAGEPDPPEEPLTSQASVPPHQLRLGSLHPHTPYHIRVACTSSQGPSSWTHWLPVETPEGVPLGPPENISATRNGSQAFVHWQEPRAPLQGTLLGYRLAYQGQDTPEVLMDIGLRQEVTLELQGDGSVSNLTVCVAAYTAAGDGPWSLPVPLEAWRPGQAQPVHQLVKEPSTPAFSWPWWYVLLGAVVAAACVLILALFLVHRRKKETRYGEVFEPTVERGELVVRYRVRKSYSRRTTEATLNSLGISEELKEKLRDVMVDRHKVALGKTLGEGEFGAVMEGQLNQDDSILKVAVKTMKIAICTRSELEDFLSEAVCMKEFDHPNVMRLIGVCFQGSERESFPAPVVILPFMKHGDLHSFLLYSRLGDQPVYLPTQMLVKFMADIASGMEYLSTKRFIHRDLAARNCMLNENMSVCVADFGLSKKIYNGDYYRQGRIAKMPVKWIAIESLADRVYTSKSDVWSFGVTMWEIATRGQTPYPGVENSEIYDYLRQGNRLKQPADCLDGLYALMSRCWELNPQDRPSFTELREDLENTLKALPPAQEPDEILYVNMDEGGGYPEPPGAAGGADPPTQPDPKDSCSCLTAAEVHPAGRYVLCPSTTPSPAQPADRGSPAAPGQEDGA
Kind of assay: Assay of AXL inhibitory activity in vitro (Promega AXL Kinase Enzyme System, ADP-Glo). Format: biochemical. To be noted: 50 μmol/L ATP, 30° C., 60 minutes. The protocol: AXL Kinase Enzyme System (kinase system) was purchased from Promega. Envision multi-label Analyzer (PerkinElmer).
The enzyme, substrate, ATP and inhibitors were diluted using the buffer solution in the kit.
The assay was carried out in duplicate. 1 μl of the inhibitors of each concentration gradient, 2 μl of the AXL enzyme (6 ng), and a 2 μl mixture of the substrate and ATP (50 μmol/L ATP, 0.2 μg/μL Axltide) were added to the microplate. […] After the reaction was completed, 5 μL of ADP-Glo reagent was added to each well. The system was further reacted at 30° C. for 40 minutes. After the reaction was completed, 10 μL of kinase detection reagent was added to each well and reacted at 30° C. for 30 minutes. The chemiluminescence was then read by the PerkinElmer Envision multi-label analyzer with an integration time of 0.5 seconds.
The original data was converted into an inhibition rate, and the IC50 value can be obtained by four-parameter curve fitting.
A general note: ADP-Glo first removes unused ATP, then detects ADP through luciferase.

Counter-ions that a name gives are not always drawn.

Regarding `CCc1nc(C(N)=O)c(Nc2ccc(N3CCC4(CCN(C)CC4)CC3)c(OC)c2)nc1NC1CCOCC1` [Trifluoroacetate salt of compound A, reference compound], the IC50 amounted to 5.76 nM.
